We go through four compounds from US20090280112A1 (The Regents of the University of California, priority 2008, published 2009).

Series [1] has as its system LAPC-4 prostate cancer cells. The experiment in a line: LAPC-4 prostate cancer cell growth (CyQuant or BCA cell proliferation assay). The note with it: for block of the effect of 1 nM DHT to stimulate proliferation: much smaller effects on non-androgen mediated growth. Format: cell-based, human. As for the experimental part: LAPC-4 prostate cancer cells were maintained at 37° C., 5% CO2 in phenol-free RPMI+10% FCS RPMI. Steroid free medium consisted of phenol-free RPMI supplemented with 10% dextran-coated, charcoal-treated serum (10% CDSS RPMI). LAPC-4 cells were incubated in this steroid-free 10% CDSS RPMI for 3 days prior to plating in 96 well plates (5×10^3 cells/well). […] The medium with androgens and inhibitors was refreshed on day 3. The plates were harvested on day 7 by inverting the microplate onto paper towels with gentle blotting to remove growth medium without disrupting adherent cells and freezing them at −80° C. for at least 30 minutes. LAPC-4 prostate cancer cell growth was determined using either the CyQuant cell proliferation assay (Molecular Probes, Eugene, Oreg.) or by the BCA assay (Pierce, Rockford, Ill.). Cell proliferation was calculated as the percent of content versus control cells at day 0.
Each value shown is the mean+SD for triplicate determinations. In FIGS. 1a and 2b, cell proliferation was measured by BCA, and in FIG. 1c by the CyQuant method. In all future studies, the CyQuant method was employed to measure proliferation.

The test system of series [2] is LAPC-4 cells. The experiment in a line: LAPC-4 growth in soft agar (anchorage independent growth), CyQuant. Format: cell-based, human. The note with it: 1 nM DHT, 6 days, FIG. 3b.
Series [3] has as its system IGF-1 receptor. Briefly: IGF-1 receptor content in LAPC-4 cells (immunoprecipitation, western blot). Format: cell-based, human. Here is the method: At the end of the incubation period, cells were washed twice with PBS and solubilized with lysis buffer (50 mM HEPES pH 7.6, 150 mM NaCl, 0.1% Triton X-100, 1 mM PMSF, 2 mM Na3VO4) for 1 hour at 4° C. […] The immunoprecipitated samples were run on SDS-PAGE, under reducing condition. Following transfer to nitrocellulose membrane, levels of IGF-1 receptor were assessed by western blot. Following an overnight incubation at 4° C., the membranes were washed 3 times with TBST and then incubated with HRP-conjugated anti-rabbit IgG diluted 1:50,000 in the same blocking buffer for 90 minutes at room temperature. After washing, blots were incubated with Super Signal (Pierce Chemicals, Rockford, Ill.), and exposed to film.
In general terms: A western blot detects proteins with antibodies after separation by electrophoresis.

Series [4] relates to IGF-1 receptor mRNA. The experiment in a line: IGF-1 receptor gene expression by quantitative PCR in LAPC-4 cells. Format: cell-based, human. The following applies: FIG. 6a. Here is the method:
A large master mix of the above-mentioned components (minus the primers, probe and cDNA) was made for each experiment and aliquoted into individual tubes, one for each cDNA sample. cDNA was then added to the aliquoted master mix. The master mix with cDNA was aliquoted into a 384-well plate, with nine wells used for each cDNA sample. The primers and probes were mixed together and added to the master mix and cDNA in the 384-well plate. PCR was conducted on the ABI 7900HT (Applied Biosystems, CA) using the following cycle parameters: 1 cycle of 95° C. for 10 minutes, 40 cycles of 95° C. for 15 seconds, 60° C. for 1 minute. Analysis was carried out using the SDS software (version 2.3) supplied with the ABI 7900HT. The Ct values for each set of three reactions were averaged for all subsequent calculations. PCR primer and TaqMan probe sequences were either synthesized by Integrated DNA Technologies (Coralville, Iowa) or purchased from Applied Biosystems (Foster City, Calif.).

Series [5] relates to patients with both androgen-dependent and androgen-independent prostate cancer. The note with it: Ryan et al. (2008), cited from earlier work.
Series [6] concerns insulin receptor (IR). The following applies: FIG. 5c. As for the experimental part:
Level of insulin receptor was determined in 15 μg of total protein run on SDS-PAGE under reducing conditions, transferred to nitrocellulose membrane, and analyzed by probing with an anti-insulin receptor antibody CT-3, diluted 1:1000 in 1% milk, 1% BSA in TBST at 4° C. overnight. The secondary anti-mouse IgG, diluted 1:2000 in the same blocking buffer, was applied for 90 minutes at room temperature. Blots were incubated with SuperSignal, and exposed to film.

For `C[C@H](Cc1ccc(O)c(O)c1)[C@@H](C)Cc1ccc(O)c(O)c1` [NDGA, Meso-nordihydroguaiaretic acid], the IC50 stood at 5 µM in series [1] (Homo sapiens, LAPC4, 5 separate experiments, mean+SEM, read-out: half-maximal effect to inhibit androgen-stimulated growth) and 11 µM in series [3] (read-out: effects to inhibit DHT-induced IGF-1 receptor content, 3 separate experiments, mean+SEM, FIG. 5e). Besides, the “inhibition of the effect of DHT on growth in soft agar” value in series [2] is “inhibited anchorage independent growth”. The “inhibition of the effect of DHT to increase expression of IGF-1 receptor” value in series [4] (NDGA at 10 μM) was “completely inhibit”. In addition, the clinical safety entry in series [5] was “reasonable safety”. The “effect on PSA” value in series [5] (patients with non-castrate levels of testosterone and a rising PSA) is given as “modest declines in PSA”.

`Nc1ncnc2c1c(-c1cccc(OCc3ccccc3)c1)cn2C1CC(CN2CCC2)C1` (centres unmarked) [NVP-AEW541]: the “block of the effect of 1 nM DHT to stimulate proliferation” value in series [1] is reported as “completely blocked”.

As for `C[C@]12CCC(=O)C[C@@H]1CC[C@@H]1[C@@H]2CC[C@]2(C)[C@@H](O)CC[C@@H]12` [DHT, dihydrotestosterone], the “affect to stimulate growth above control” value in series [1] (DHT at 10 nM, 7 days, 3 separate experiments, mean+SEM) is recorded as 83+8%. The “concentration at which a major effect on proliferation was observed” value in series [1] (FIG. 1b) is recorded as 0.1 nM. In series [3] (FIG. 5b), the “concentration at which a significant effect on IGF-1 receptor content was observed” value is listed as 0.1 nM. Besides, in series [3] (western blot, FIG. 5a), the “effect on content of the IGF-1 receptor” value is “markedly increased”. Also, the “change in content of insulin receptor (IR)” value in series [6] is given as “no change”. For the same compound, in series [4], the “concentration that maximally increases IGF-1 receptor gene expression” value is on record as 0.1 nM.

Take `COc1cc([C@@H]2c3cc4c(cc3[C@H](O)[C@H]3COC(=O)[C@@H]23)OCO4)cc(OC)c1OC` [PPP, picropodophyllin]: in series [1], the “block of the effect of 1 nM DHT to stimulate proliferation” value is listed as “completely blocked”.
